Results reported in patent US6699834B1, “Method for treating cancer” (University of Maryland Biotechnology Institute, priority 1997, dated 2004).
Bridge positions count the residues as written; N and C are the ends. Ends that are not written are not given here.

How the values were obtained:
[1] = system: HIV RNA and protein expression; test: HIV RNA and protein expression in HIV-1 transgenic mice; type: in vivo
From the text: The HIV-1 transgenic mice used for this study contain 7.4 kb of foreign DNA, including 5.1 kb of the HIV-1 proviral genome deleted in the gag and pol genes and 2.3 kb of vector (Dickie et al., 1991, Virology 185:109-119). […] In addition, these mice develop severe hyperkeratotic skin lesions with marked expression of gp 120 and nef genes (Kopp et al., 1993, AIDS Res. Hum. Retroviruses 9:267-275; Vasli et al., 1994, AIDS Res. Hum. Retroviruses 10:1241-1250).
Heterozygous transgenic mothers were treated with the hCG preparation subcutaneously twice weekly. Pups received hCG via the mother's milk.
Gene expression was assayed in total RNA extracted from the skin of Tg26 mice with RNAzol. One microgram of RNA was reverse transcribed into cDNA using random hexamer primers and […] reverse transcriptase (Life Technologies, MD) in a final volume of 30 μl. One tenth of the cDNA reactions were used for PCR amplification of various HIV gene sequences (env, tat, rev, nef and vif). In addition, glyceraldehyde 3-phosphate dehydrogenase (GAPHD) mRNA was amplified for each sample for normalization. Following 25 cycles of amplification, 10% of the PCR product was resolved by electrophoresis through 2% agarose gels and processed for Southern hybridization using FITC-labeled oligonucleotide probes complimentary to internal sequences of the amplicons. Detection was performed by chemiluminescence (Amersham) and relative mRNA levels determined by densitometry after normalization with GAPDH mRNA levels.
Finally, certain fractions were tested for their ability to increase survival, promote weight gain and reduce HIV-1 gene expression in HIV-1 transgenic mice as described herein.

[2] = system: Kaposi's Sarcoma induced in mice; test: Kaposi's Sarcoma tumors induced in mice by KS Y-1 cells; type: in vivo
Experimental: The effects of the peptides on KS tumor cells were also evaluated in vivo in the KS mouse model. To induce KS tumors in the mice, 1×10^6/ml KS Y-1 cells in 50 μl PBS or saline were injected subcutaneously into immunodeficient mice (beige-XID-BNX mice). […] Methods for detection of apoptosis (from tissue biopsies) were used, as described in Lunardi-Iskandar et al.(1995, Nature 375:64-68). Briefly, the samples were stained in situ for the presence of cells with DNA fragmentation. Tissue slides from formalin-fixed tumors were treated with terminal deoxynucleotide transferase for extension of DNA ends (hydroxyl 3′) and incorporation of digoxigenin-11-dUTP according to the manufacturer's instructions (Oncor, Gaithersburg, Md.). Anti-digoxigenin antibody conjugated with the enzyme peroxidase allowed detection of apoptotic cells, which stain brown, whereas viable cells stain blue.
Certain fractions were tested for activity in reducing Kaposi's Sarcoma lesions in the Kaposi's Sarcoma mouse model as described herein. In this assay, starting one week after injection of the KS Y-1 cells to induce Kaposi's sarcoma formation, the mice were injected subcutaneously with 100 IU hCG. […] After one week of the week of treatment with the hCG fractions, the KS lesions were examined for cell apoptosis and regression as described herein.
Certain fractions of the APL™ hCG and early pregnancy urine were assayed for their ability to elicit apoptosis in Kaposi's Sarcoma lesions induced by injection of KS Y-1 cells in mice (n=3 mice for each treatment). The mice were administered 100 μl subcutaneously of the particular fraction each day for one week.

breast cancer cells = test: Trypan blue cell death assay, breast cancer cells; type: cell-based; conditions: 100 ug/ml
Experimental: (§1) The hCG preparations, fractions of the early pregnancy urine and hCG APL™ SUPERDEX™ 200 fractionations (described herein), and certain β-hCG peptides were tested on prostate, lung, breast, and kidney cancer cells in vitro, and on prostate tumors in nude mice. […] The preparations fractions and peptides were also assayed using a clonogenic assay in which cells were seeded in methylcellulose in the presence or absence of test substance and then colonies were counted after a certain period of time. Cells were also examined for apoptosis by confocal microscopy.
The effects of hCG preparations, hCG fractions and β-hCG peptides were also tested in breast cancer cells in vitro. Breast cancer cells were incubated with the hCG preparations, hCG fractions and β-hCG peptides in both the trypan blue viability assay and the clonogenic assay.

prostate cancer cells = test: Prostate cancers induced in nude mice; type: in vivo; conditions: peptide 200 μg per day, hCG APL 100 IU per day, systemic
lung cancer cells [3] = test: Apoptosis by confocal microscopy, lung cancer cells; type: cell-based; conditions: 48 hours
Experimental: The preparations fractions and peptides were also assayed using a clonogenic assay in which cells were seeded in methylcellulose in the presence or absence of test substance and then colonies were counted after a certain period of time. Cells were also examined for apoptosis by confocal microscopy. FIGS. 23A-F show confocal micrograms of lung cancer cells treated with the hCG or hCG related preparation and then stained with FITC labelled actin monoclonal antibody to visualize the cytoskeleton and propidium iodine to visualize the cells nucleus. Condensation of the nucleus and damage to the cytoskeleton are indications of apoptosis.

lung cancer cells [4] = test: Clonogenic assay, lung cancer cells; type: cell-based; conditions: compared to PBS alone
Experimental: as §1

4. Circ 44-57: β-hCG 44-57 with cysteine substituted at position 44, circularized via disulfide bond (SEQ ID NO:26) (CLQGVLPALPQVVC; disulfide 1-14 (inferred))
inhibition of HIV RNA and protein expression ([1]; inhibition of HIV RNA and protein expression in HIV-1 transgenic mice): +++ (“+++” represents greater than 70% effect) | HIV-1 gene / protein expression in transgenic mice (in words) ([1]; pups dosed via mother's milk): considerable inhibition | KS in vivo ([2]; inhibition of Kaposi's Sarcoma induced in mice): +++ (“+++” represents greater than 70% effect) | effect on KS tumors in mice (in words) ([2]; mouse, in vivo): extensive cell death | % dead cells (breast cancer cells): 42% | apoptosis of prostate cancer cells in vivo (prostate cancer cells): caused apoptosis of the prostate cancer cells in vivo | apoptosis (lung cancer cells [3]): increased apoptosis | colony formation (lung cancer cells [4]): inhibited colony formation
